Values of other authors in patent US20110189689A1, “RIBOSWITCHES” (priority 2008, published 2011).

What was measured:
S. cerevisiae = conditions: presumably by binding to enzymes
[1] = system: E. col±165 thiM RNA riboswitch; conditions: non-phosphorylated form of the thiamine analog
[2] = system: TPP-specific riboswitches in bacteria and plants; conditions: via interaction with TPP-specific riboswitches in bacteria and plants

| SMILES | growth rate of S. cerevisiae (S. cerevisiae) | affinity to the thiM RNA riboswitch [1] | antibiotic effect [2] |
| --- | --- | --- | --- |
| Cc1ncc(C[n+]2csc(CCO)c2C)c(=O)[nH]1 [oxythiamine] | can reduce the growth rate | strongly reduced affinity | – |
| Cc1ncc(C[n+]2cccc(CCOP(=O)(O)OP(=O)(O)O)c2C)c(N)n1 [PTPP, pyrithiamine pyrophosphate] | – | – | exert an antibiotic effect |
